Reference: patent US7345078B2, “NF-κB inhibitors and uses thereof” (The Board of Trustees of Michigan State University, priority 2002, dated 2008)
pIC50: −log10 of the molar value. Entries after “also recorded” stand apart in the source; their conditions may differ. Read-outs that look alike come from different tables or passages of the source.

Legend:
[1] = molecular target: T1, NF-κB (Homo sapiens, UniProt P19838+Q04206); test: EMSA of camptothecin activated NF-κB in CEM leukemia T-cells; assay type: cell-based; parameters: endogenous in cells; nuclear extract; conditions: for inhibition of camptothecin induced NF-κB nuclear binding: CPT 0.1 μM, 32 at 10 μM to 10 nM, PDTC 5 μM
Method: CEM cells were incubated with and without varying concentrations of camptothecin (CPT). Positive controls included PMA/PHA activation (FIG. 11, lane 2). Lane 3 included a positive control using PMA/PHA activation followed by the treatment of the extract with a NF-κB p65 antibody to unambiguously identify the NF-κB/DNA complex.
CEM cells were treated with various concentration of imidazoline 32, 30 minutes prior to activation by camptothecin (0.1 μM). […] Control lanes include: DNA only (lane 1), PMA/PHA activated NF-κB (lane 2), PMA/PHA activated NF-κB treated with a p65 antibody, which provide a supershift (lane 3) and the unactivated control (lane 4).
EMSA assay for NF-κB-DNA binding was as follows. […] The cells were harvested by centrifugation, washed in ice cold PBS and the nuclear extracts were prepared as previously described (Dignam, et al., Nucl. Acids Res 11: 1475-1489 (1983)). The protein concentration of the extracts was determined according to the Method of Bradford (1976) with BioRad reagents. Nuclear extracts are incubated for 20 minutes at room temperature with a double stranded Cy3 labeled NF-kB consensus oligonucleotide, 5′-[sequence] […] The binding mixture (25 mL) contained 10 mM HEPES-NaOH pH 7.9, 4 mM tris-HCl, pH 7.9, 6.0 mM KCl, 1 mM EDTA, 1 mM DTT, 10% glycerol, 0.3 mg/mL bovide serum albumin and 1 mg of poly (dI.dC). The binding mixtures (10 mg of nuclear extract protein) were incubated for 20 minutes at room temrperature with 0.16 pmol of Cy3 labeled oligonucleotide. The mixture was loaded on a 4% polyacrylamide gel prepared in 1× tris borate/EDTA buffer and was electrophoresed at 200 V for 20 minutes. After electrophoresis the gel was analyzed using a phosphorimager (Biorad FX plus) for detection of the NF-kB—DNA binding.

[2] = system: NF-κB p50/p65 heterodimer; test: p65-ELISA assay of NF-κB nuclear translocation in Jurkat cells; assay type: cell-based, Human; conditions: concentrations 100 ηM-5.0 μM, 30 minutes prior to PMA activation
Method: Inhibition of the nuclear translocation of the p50/p65 heterodimer of NF-κB was confirmed by a p65-ELISA assay. Cells were treated with the PDTC (positive control-reported to inhibit IκB phosphorylation thus inhibiting NF-κB translocation), and imidazoline 32, 30 minutes prior to PMA activation, followed by the isolation of the nuclear extract after a 30 minute incubation period.
The quantity of p65/p50 heterodimer that has translocated into the nucleus was measured using a NF-κB p65 sandwich ELISA assay (Imgenex Corp.). Jurkat cells were grown to 2×10^6 cells/mL and treated with 50 ng/mL PMA and 1 μg/mL PMA/PHA and incubated at 37° C., 5% CO2. The cells are harvested after 30 minutes and nuclear extracts are prepared as previously described by Dignam and coworkers (Dignam, et al., Nucl. Acids Res 11: 1475-1489 (1983)). The NF-κB p65 sandwich ELISA kit was then used to monitor and quantify p65 translocation into the nucleus according to the manufacturers protocol.

[3] = system: CEM cells
Method: Imidazolines 28-33 were evaluated for their ability to enhance the activity of camptothecin in CEM cells. Induction of apoptosis is the hallmark of most chemotherapeutic agents including camptothecin. The systematic disassembly of apoptotic cells is accomplished by active caspases (Thornberry et al., Nature 356: 768-774 (1992); Nicholson et al., Trends Biochem. Sci. 22: 299-306 (1997)). A standard apoptosis assay is Promega's APO-ONE homogeneous caspase-3/7 assay, which takes advantage of this caspase activity to directly quantify the induction of apoptosis in cells (Thornberry et al., Nature 356: 768-774 (1992); Nicholson et al., Trends Biochem. Sci. 22: 299-306 (1997)). According to the hypothesis that NF-κB inhibition should enhance the activity of chemotherapeutic agents via the inhibition of anti-apoptotic signaling pathway—thus enhancement of apoptosis—(Boland, Biochem Soc Trans 29: 674-678 (2001); Chiao et al., Cancer 95: 1696-1705 (2002)), we investigated the effects of the imidazolines using this caspase-3/7 assay. This assay quantifies the level of apoptotic cell death induced by camptothecin with and without the imidazolines and will establish the direct level of enhancement of apoptosis by camptothecin.
Induction of apoptosis using caspase 3/7 assay was as follows. CEM cells (CCRF-CEM); Amer. Type Culture Collection, Rockville, Md.) were grown in RPMI-1640 Media (Gibco-BRL, Rockville, Md.) supplemented with 10% fetal bovine serum, penicillin (614 ηg/mL), streptomycin (10 μg/mL) and hepes buffer, pH 7.2 at 37° C., 5% CO2. DMSO was used as the vector for all drugs and added in the control experiments. Cell cultures were treated with 1 μM, 0.1 μM or 10 nM of the imidazolines and allowed to incubate at 37° C., 5% CO2. An aliquote was transferred to a 96-well plate and mixed with an equal volume of Apo-ONE™ Homogenous Caspase-3/7 assay (Promega Corporation) reagent. The contents of the plate were gently mixed and allowed to incubate for 1 hour. The fluorescence of each well was then measured on a Molecular Imager FX Pro at 532 nm. All reported data was the average of two independent experiments unless otherwise indicated.

[4] = IP, doses 5.0 and 50 mg/kg
Method: Prior to the combinatorial studies, the toxicity of the compounds was determined in the mouse model. […] In short, the drugs are dissolved in DMSO and 100 μL given to the mice on day 0 by intraperitoneal injection (IP). […] Weight and death were the two measures of toxicity.

[5] = system: Micrococcus luteus; test: standardized disk diffusion method (zone diameter / MIC); assay type: cell-based; conditions: at the amount printed in the same cell
Method: (§1) Compounds 4, 6, and 7 were tested for the inhibition of bacteria. A total of 9 bacterial strains were screened. The following Gram-negative and Gram-positive bacteria were included: Staphylococcus aureus, Enterobacter aerogenes, Esherichia coli, Klebsiella pneumonia, Pseudomonas aeruginosa, Serratia marcescens, Bacillus cerius, Bacillus subtillus and micrococcus luteus. Bacterial isolates were removed from storage, streaked on to nutrient agar plates and incubated for 18-24 hours at 35° C. A working bacterial suspension was prepared by suspending 3-5 isolated colonies in 5 mL saline solution. The turbidity of this suspension was carefully adjusted photometrically to equal that of a 0.5 McFarland standard. The zone diameters were determined by a standardized disk diffusion method using cation-supplemented Mueller-Hinton agar according to NCCLS guidelines (National Committee for Clinical Laboratory Standards. Methods for dilution Antimicrobial Susceptibility Tests for Bacteria that Grow Aerobically. Fifth Edition: Approved Standard M7-A5. Wayne, Pa.: NCCLS (2000)). Minimum inhibitory concentrations (MICs) were considered the lowest concentration that gave a clear zone of inhibition. The inoculated agar plates were incubated for 16-20 hours at 35° C. in ambient air. The diameters of the zones were read in millimeters.

[6] = system: RIF-1 murine tumor; test: RIF-1 murine model of tumor growth delay; assay type: in vivo, mice; conditions: for Days Delay (tumor growth delay) / Median (days to 4x) / Days to 4x (Ave ±SE): IP, imidazoline 100 mg/kg, cis-platin 4 mg/kg, camptothecin 6 mg/kg; for Median (days to 4x): untreated 7.0; for Days to 4x (Ave ±SE): untreated 7.3 ± 0.6; for chemopotentiation of camptothecin: combinational treatment with camptothecin (CPT); for chemopotentiation of camptothecin / chemopotentiation of cis-platin: RIF-1 tumors in mice; for chemopotentiation of cis-platin: combinational treatment with cis-platin (CDDP)
Method: Tumor cells were injected, bilaterally, into the backs of mice. When tumors reached 100 mm^3, the mice were treated with an intraperitoneal injection of the compound. Tumor volumes were measured 3 times a week until they reached 4 times the size they were on the first treatment day. Data is recorded as “Days to 4×’ or ratio of ‘Days to 4×” of the treated over untreated controls.

[7] = molecular target: T1, NF-κB; test: IC50 values in Mammalian Jurkat cells Leukemia T cells; assay type: cell-based; parameters: endogenous in cells; host or cells: Jurkat leukemia T-cells, clone E6-1 (ATCC), PMA-stimulated; nuclear extract; conditions: concentration at which 50% of the protein/enzyme is inhibited in cells
Method: (§2) All compounds were evaluated for their potential anti-inflammatory activity by examining the activity of NF-κB in vitro in nuclear extracts using the procedure from Breton and Charbot-Fletcher (Breton et al., J. Pharmacol. Exp. Ther. 282 459-466 (1997)). […] The Jurkat cells (1×10^7 cells/mL) are subsequently treated with various concentrations of imidazoline for 30 minutes at 37° C. followed by PMA stimulation (5.0 ng/mL) for an additional 5 hours. Nuclear extracts are incubated for 20 minutes with a double stranded Cy3 labeled NF-κB consensus oligonucleotide, 5′-[…]-3′ (SEQ ID NO:1) at room temperature. The crude mixture is loaded on a 5% non-denaturing polyacrylamide gel prepared in 1×Tris borate/EDTA buffer and electrophoresed at 200V for 2 hours. After electrophoresis the gel is analyzed using a phosphorimager (Biorad FX PLUS) for detection of the NF-κB-DNA binding.
IC50 values in Mammalian Jurkat cells Leukemia T cells: IC50 value is defined as the concentration of compounds at which 50% of the protein/enzyme is inhibited in cells (Table 3).

[8] = molecular target: T1, NF-κB; test: EMSA of nuclear NF-κB-DNA binding in nuclear extracts of PMA-stimulated Jurkat leukemia T-cells; assay type: cell-based; parameters: endogenous in cells; host or cells: Jurkat leukemia T-cells, clone E6-1 (ATCC), PMA-stimulated; nuclear extract; conditions: for inhibition at 0.1 µM: compound 0.1 μM (100 nM)
Method: as §2
EMSA assay for NF-κB-DNA binding was as follows. […] The Jurkat cells (1×10^6 cells/mL) were subsequently treated with various concentrations of the compounds for 30 minutes at 37° C. and 5% CO2 followed by PMA (50 ng/mL) and PHA ([…]) stimulation for an additional 30 minutes. The cells were harvested by centrifugation, washed in ice cold PBS and the nuclear extracts were prepared as previously described (Dignam, et al., Nucl. Acids Res 11: 1475-1489 (1983)). The protein concentration of the extracts was determined according to the Method of Bradford (1976) with BioRad reagents. Nuclear extracts are incubated for 20 minutes at room temperature with a double stranded Cy3 labeled NF-kB consensus oligonucleotide, 5′-[…] CCAGGC-3′ (SEQ ID NO:1). The binding mixture ([…]) contained 10 mM HEPES-NaOH pH 7.9, 4 mM tris-HCl, pH 7.9, 6.0 mM KCl, 1 mM EDTA, 1 mM DTT, 10% glycerol, 0.3 mg/mL bovide serum albumin and […] of poly (dI.dC). The binding mixtures ([…] of nuclear extract protein) were incubated for 20 minutes at room temrperature with 0.16 pmol of Cy3 labeled oligonucleotide. The mixture was loaded on a 4% polyacrylamide gel prepared in 1× tris borate/EDTA buffer and was electrophoresed at 200 V for 20 minutes. After electrophoresis the gel was analyzed using a phosphorimager (Biorad FX plus) for detection of the NF-kB—DNA binding.

[9] = system: Staphylococcus aureus; test: standardized disk diffusion method (zone diameter / MIC); assay type: cell-based; conditions: at the amount printed in the same cell
Method: as §1

[10] = system: Bacillus subtillus; test: as above; assay type: cell-based; conditions: at the amount printed in the same cell
Method: as §1

[11] = system: Bacillus cereus; test: as above; assay type: cell-based; conditions: at the amount printed in the same cell
Method: as §1

T1 sequence (Q04206 whole entry): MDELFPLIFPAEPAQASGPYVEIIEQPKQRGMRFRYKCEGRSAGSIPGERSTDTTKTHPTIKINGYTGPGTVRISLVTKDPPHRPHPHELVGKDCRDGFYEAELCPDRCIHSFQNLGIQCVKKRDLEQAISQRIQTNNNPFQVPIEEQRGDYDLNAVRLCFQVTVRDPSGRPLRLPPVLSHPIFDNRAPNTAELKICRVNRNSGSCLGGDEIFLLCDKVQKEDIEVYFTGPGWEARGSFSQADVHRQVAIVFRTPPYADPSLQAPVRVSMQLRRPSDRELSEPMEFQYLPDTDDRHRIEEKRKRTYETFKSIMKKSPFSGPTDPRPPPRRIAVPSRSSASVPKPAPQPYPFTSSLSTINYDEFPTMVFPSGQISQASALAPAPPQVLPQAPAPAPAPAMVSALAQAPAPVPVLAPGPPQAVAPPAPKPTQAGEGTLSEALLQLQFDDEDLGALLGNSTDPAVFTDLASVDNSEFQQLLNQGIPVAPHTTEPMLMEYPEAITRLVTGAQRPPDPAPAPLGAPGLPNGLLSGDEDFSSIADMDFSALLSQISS
T1 sequence (P19838 1-433 limits assumed): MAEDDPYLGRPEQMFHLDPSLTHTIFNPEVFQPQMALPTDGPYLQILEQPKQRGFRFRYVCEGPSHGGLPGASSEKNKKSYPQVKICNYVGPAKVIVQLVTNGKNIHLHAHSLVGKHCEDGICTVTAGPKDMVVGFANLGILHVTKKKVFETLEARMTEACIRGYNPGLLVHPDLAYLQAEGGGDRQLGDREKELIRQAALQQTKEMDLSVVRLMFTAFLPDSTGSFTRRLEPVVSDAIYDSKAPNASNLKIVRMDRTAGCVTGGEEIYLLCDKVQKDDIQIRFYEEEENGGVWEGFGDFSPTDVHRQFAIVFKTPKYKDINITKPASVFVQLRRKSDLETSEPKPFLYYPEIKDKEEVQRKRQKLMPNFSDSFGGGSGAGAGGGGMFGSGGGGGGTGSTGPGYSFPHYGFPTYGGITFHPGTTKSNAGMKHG

Structure (SMILES) | inhibition of camptothecin induced NF-κB nuclear binding [1] | inhibition of NF-κB p50/p65 heterodimer nuclear translocation [2] | tolerability in mice [4] | zone of inhibition diameter [5] [mm] | Days Delay (tumor growth delay) [6] [days] | Median (days to 4x) [6] [days] | Days to 4x (Ave ±SE) [6] [days] | chemopotentiation of camptothecin [6] | chemopotentiation of cis-platin [6] | pIC50 [7] | inhibition at 0.1 µM [8] [%] | other results
O=C(O)[C@@]1(c2ccccc2)N=C(c2ccccc2)N(Cc2ccccc2)[C@H]1c1ccccc1 (racemic) [Compound 32, dl-(4S,5S)-1-Benzyl-2,4,5-triphenyl-4,5-dihydro-1H-imidazole-4-carboxylic acid] | inhibited camptothecin induced NF-κB nuclear binding in a dose responds manner | inhibition of nuclear translocation of NF-κB; also recorded: significantly inhibits | well tolerated |  |  |  |  |  |  |  |  | NF-κB-DNA complex formation ([1]; 0.1 μM CPT + 10 μM compound 32 (lane 7 versus lane 5)): significant decrease; Apoptosis (±S.D.) [3]: 1.98 ± 0.0001; chemopotentiation of cis-platin (apoptosis) ([3]; CEM cells, 0.1 micromolar cis-platin + 0.1 micromolar 32 versus 1.0 micromolar cis-platin): chemopotentiation of cis-platin; also recorded: chemopotentiate cis-platin; induction of apoptosis in combination with camptothecin ([3]; CEM cells, CPT 0.1 μM with varying concentrations of imidazoline, 48 hours): dose dependent enhancement of apoptosis
C[C@]1(C(=O)O)N=C(c2ccccc2)N(Cc2ccccc2)[C@H]1c1ccncc1 (racemic) [Compound 6, Dl-(3S,4S)-1-Benzyl-4-methyl-2-phenyl-5-pyridin-4yl-4,5-dihydro-1H-imidazole-4-carboxylic acid] |  |  |  | 10 | -0.41 | 6.6 | 6.6 ± 0.3 | significant chemopotentiation | significant chemopotentiation | 6.52 | 84 | 
C[C@]1(C(=O)O)N=C(c2ccccc2)N[C@H]1c1ccccc1 (racemic) [Compound 7, Dl (3S,4S)-4-Methyl-2,5-diphenyl-4,5-dihydro-1H-imidazole-4-carboxylic acid] |  |  |  | 10 |  |  |  |  |  | 7.70 | 38 | 
N.S=C(S)N1CCCC1 [PDTC, reference compound] | decrease of binding | significant inhibition; also recorded: inhibited NF-κB translocation |  |  |  |  |  |  |  |  |  | 
C[C@]1(C(=O)O)N=C(c2ccccc2)N(c2ccc(F)cc2)[C@H]1c1ccccc1 (racemic) [Compound 28, dl-(4S,5S)-1-(4-Fluorophenyl)-4-methyl-2,5-diphenyl-4,5-dihydro-1H-imidazole-4-carboxylic acid] |  |  | well tolerated |  |  |  |  |  |  |  |  | Apoptosis (±S.D.) ([3]; Compound 1.0 μm alone, T-cells, 48 hour period, cells only = 1.00 (normalized)): 1.25 ± 0.18
O=C(O)[C@@]1(c2ccccc2)N=C(c2ccccc2)N(Cc2ccccc2)[C@H]1c1ccccc1 (racemic) [Compound 4, Dl-(3S,4S)-1-Benzyl-2,4,5-triphenyl-4,5-dihydro-1H-imidazole-4-carboxylic acid] |  |  |  | 12 | -0.56 | 6.5 | 6.4 ± 0.2 | No significant chemopotentiation | considerable chemopotentiation | 7.14 |  | zone of inhibition diameter [9]: 12 mm; zone of inhibition diameter [10]: 13 mm; zone of inhibition diameter [11]: 11 mm; tumors < 4x at Day 22 ([6]; cis-platin 4 mg/kg + compound 4 100 mg/kg IP): 4 of the 8; inhibition at 1 µM ([8]; compound 1.0 μM): 65%
